1 compound from US20150051558A1, “COMPOSITION AND METHOD FOR CORNEAL PROLIFERATION” (UNIVERSITY OF CENTRAL FLORIDA RESEARCH FOUNDATION, INC., priority 2012, published 2015) can be followed below.

“Also recorded” adds a separate entry of the source.

For test [1], the system named is rat cornea. Nature of the test: Experiment 1: BrdU staining of cornea after MS-818 ophthalmic drops. It is filed as in vivo. How it is done: (§1) Surgeries were performed to remove the left lachrymal gland from sixteen rats. MS-818 was then administered via ophthalmic drop to both eyes of twelve of the rats divided into three dosage groups, 1 mg/ml, 3 mg/ml, and 10 mg/ml. The remaining four rats served as a control group, receiving drops of phosphate buffered saline. The compound was administered three times over a period of three days. BrdU was administered during this time via intra-peritoneal injection. Rats were euthanized seven days after the first compound administration and underwent perfusion. Eyes were sliced in twenty micron slices using a cryostat. The slices were mounted on glass slides. The slides were then stained with monoclonal mouse anti BrdU primary antibody to test for the incorporation of BrdU into nuclei. TRITC conjugated donkey anti mouse secondary antibody was used to detect the primary antibody. Slides were stained with DAPI to visualize the nuclei. Images were captured of the slices in 100× magnification under TRITC, DAPI and FITC fluorescence.
(Incorporation of labelled thymidine or its analogues reports DNA synthesis.)

Test [2] has as its system rat cornea. The experiment in a line: Experiment 2: BrdU staining of cornea after MS-818 ophthalmic drops. It is filed as in vivo. How it is done:
as §1, with “According to another example similar to experiment 1, surgeries” for “Surgeries”, “groups, 100 μg/ml, 300 μg/ml, and” for “groups,”, “1” for “1 mg/ml, 3 mg/ml, and 10”

For `CN1Cc2nc(N3CCCCC3)ncc2C1=O.O=C(O)/C=C\C(=O)O` [MS-818, 2-piperadino-6-methyl-5-oxo-5,6-dihydro-(7H) pyrrole-[3,4-d]pyrimidine maleate], the “proliferation in the non-injured eyes vs non-drug receiving control group” value in test [1] (ophthalmic drops, three dosage groups, preliminary results) is “marked increase in proliferation”. In addition, the “BrdU positive signaling within the cornea (cell proliferation)” value in test [1] (rat, eye drop, high dosage (1 mg/ml), three times over three days, euthanized seven days after first administration, non surgical eye, FIG. 1B vs control FIG. 1A) is recorded as “significantly increased BrdU positive signaling”. Also, in test [2] (eye drop 100 μg/ml, 300 μg/ml, 1 mg/ml, three times over three days, non surgical eye, FIG. 4), the “cell proliferation (BrdU staining) in cornea vs control animal” value is recorded as “significant increase in cell proliferation over the control animal”. For the same compound, in test [2] (eye drop, low, medium and high dose vs control, n=6, FIG. 5), the “number of nuclei positive for BrdU per field of view in the cornea” value is “significantly (p<0.05) higher than the control; also recorded: significant and dose dependent increase”.
